Reference: publication PMC11576293, “New series of 4,6-diaryl pyrimidines: facile synthesis and antiproliferative activity as dual EGFR/VEGFR-2 inhibitors” (Frontiers in Chemistry, 2024)

How the values were obtained:
Assay in all cases: NCI-60 single-dose screen
Type in all cases: cell-based
[1] = test system: KM12; conditions: Homo sapiens, single dose 10 µM, '-' = no inhibition, read-out: % Growth Inhibition
How it was run: (§1)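 NCI DTP single-dose screen; 10 μM compound; 60-line panel, nine cancer types.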

[2] = test system: SNB-75; conditions: Homo sapiens, single dose 10 µM, '-' = no inhibition, read-out: % Growth Inhibition
How it was run: as §1

[3] = test system: SK-MEL-2; conditions: Homo sapiens, single dose 10 µM, '-' = no inhibition, read-out: % Growth Inhibition
How it was run: as §1

[4] = test system: NCI/ADR-RES; conditions: Homo sapiens, single dose 10 µM, '-' = no inhibition, read-out: % Growth Inhibition
How it was run: as §1

[5] = test system: 786-0; conditions: Homo sapiens, single dose 10 µM, '-' = no inhibition, read-out: % Growth Inhibition
How it was run: as §1

[6] = test system: HOP-62; conditions: Homo sapiens, single dose 10 µM, '-' = no inhibition, read-out: % Growth Inhibition
How it was run: as §1

[7] = test system: SN12C; conditions: Homo sapiens, single dose 10 µM, '-' = no inhibition, read-out: % Growth Inhibition
How it was run: as §1

[8] = test system: HS 578T; conditions: Homo sapiens, single dose 10 µM, '-' = no inhibition, read-out: % Growth Inhibition
How it was run: as §1

[9] = test system: UO-31; conditions: Homo sapiens, single dose 10 µM, '-' = no inhibition, read-out: % Growth Inhibition
How it was run: as §1

[10] = test system: UACC-62; conditions: Homo sapiens, single dose 10 µM, '-' = no inhibition, read-out: % Growth Inhibition
How it was run: as §1

[11] = test system: CCRF-CEM; conditions: Homo sapiens, single dose 10 µM, '-' = no inhibition, read-out: % Growth Inhibition
How it was run: as §1

[12] = test system: SK-MEL-28; conditions: Homo sapiens, single dose 10 µM, '-' = no inhibition, read-out: % Growth Inhibition
How it was run: as §1

[13] = test system: EKVX; conditions: Homo sapiens, single dose 10 µM, '-' = no inhibition, read-out: % Growth Inhibition
How it was run: as §1

[14] = test system: CAKI-1; conditions: Homo sapiens, single dose 10 µM, '-' = no inhibition, read-out: % Growth Inhibition
How it was run: as §1

[15] = test system: NCI-H522; conditions: Homo sapiens, single dose 10 µM, '-' = no inhibition, read-out: % Growth Inhibition
How it was run: as §1

[16] = test system: SF-295; conditions: Homo sapiens, single dose 10 µM, '-' = no inhibition, read-out: % Growth Inhibition
How it was run: as §1

[17] = test system: HCT-15; conditions: Homo sapiens, single dose 10 µM, '-' = no inhibition, read-out: % Growth Inhibition
How it was run: as §1

[18] = test system: TK-10; conditions: Homo sapiens, single dose 10 µM, '-' = no inhibition, read-out: % Growth Inhibition
How it was run: as §1

[19] = test system: OVCAR-5; conditions: Homo sapiens, single dose 10 µM, '-' = no inhibition, read-out: % Growth Inhibition
How it was run: as §1

[20] = test system: HCT-116; conditions: Homo sapiens, single dose 10 µM, '-' = no inhibition, read-out: % Growth Inhibition
How it was run: as §1

[21] = test system: T-47D; conditions: Homo sapiens, T47D, single dose 10 µM, '-' = no inhibition, read-out: % Growth Inhibition
How it was run: as §1

[22] = test system: UACC-257; conditions: Homo sapiens, single dose 10 µM, '-' = no inhibition, read-out: % Growth Inhibition
How it was run: as §1

[23] = test system: IGROV1; conditions: Homo sapiens, IGROV-1, single dose 10 µM, '-' = no inhibition, read-out: % Growth Inhibition
How it was run: as §1

[24] = test system: SW-620; conditions: Homo sapiens, single dose 10 µM, '-' = no inhibition, read-out: % Growth Inhibition
How it was run: as §1

[25] = test system: RXF 393; conditions: Homo sapiens, single dose 10 µM, '-' = no inhibition, read-out: % Growth Inhibition
How it was run: as §1

[26] = test system: MCF7; conditions: Homo sapiens, single dose 10 µM, '-' = no inhibition, read-out: % Growth Inhibition
How it was run: as §1

[27] = test system: HOP-92; conditions: Homo sapiens, single dose 10 µM, '-' = no inhibition, read-out: % Growth Inhibition
How it was run: as §1

[28] = test system: SK-OV-3; conditions: Homo sapiens, single dose 10 µM, '-' = no inhibition, read-out: % Growth Inhibition
How it was run: as §1

[29] = test system: NCI-H460; conditions: Homo sapiens, single dose 10 µM, '-' = no inhibition, read-out: % Growth Inhibition
How it was run: as §1

[30] = test system: A498; conditions: Homo sapiens, single dose 10 µM, '-' = no inhibition, read-out: % Growth Inhibition
How it was run: as §1

[31] = test system: MALME-3M; conditions: Homo sapiens, single dose 10 µM, '-' = no inhibition, read-out: % Growth Inhibition
How it was run: as §1

[32] = test system: HCC-2998; conditions: Homo sapiens, single dose 10 µM, '-' = no inhibition, read-out: % Growth Inhibition
How it was run: as §1

[33] = test system: SNB-19; conditions: Homo sapiens, single dose 10 µM, '-' = no inhibition, read-out: % Growth Inhibition
How it was run: as §1

[34] = test system: SF-539; conditions: Homo sapiens, single dose 10 µM, '-' = no inhibition, read-out: % Growth Inhibition
How it was run: as §1

[35] = test system: BT-549; conditions: Homo sapiens, single dose 10 µM, '-' = no inhibition, read-out: % Growth Inhibition
How it was run: as §1

[36] = test system: MDA-MB-435; conditions: Homo sapiens, single dose 10 µM, '-' = no inhibition, read-out: % Growth Inhibition
How it was run: as §1

[37] = test system: M14; conditions: Homo sapiens, single dose 10 µM, '-' = no inhibition, read-out: % Growth Inhibition
How it was run: as §1

[38] = test system: PC-3; conditions: Homo sapiens, single dose 10 µM, '-' = no inhibition, read-out: % Growth Inhibition
How it was run: as §1

[39] = test system: MOLT-4; conditions: Homo sapiens, single dose 10 µM, '-' = no inhibition, read-out: % Growth Inhibition
How it was run: as §1

[40] = test system: MDA-MB-468; conditions: Homo sapiens, single dose 10 µM, '-' = no inhibition, read-out: % Growth Inhibition
How it was run: as §1

[41] = test system: SK-MEL-5; conditions: Homo sapiens, single dose 10 µM, '-' = no inhibition, read-out: % Growth Inhibition
How it was run: as §1

[42] = test system: HT29; conditions: Homo sapiens, HT-29, single dose 10 µM, '-' = no inhibition, read-out: % Growth Inhibition
How it was run: as §1

[43] = test system: ACHN 1; conditions: Homo sapiens, single dose 10 µM, '-' = no inhibition, read-out: % Growth Inhibition
How it was run: as §1

[44] = test system: SF-268; conditions: Homo sapiens, single dose 10 µM, '-' = no inhibition, read-out: % Growth Inhibition
How it was run: as §1

[45] = test system: U251; conditions: Homo sapiens, U-251, single dose 10 µM, '-' = no inhibition, read-out: % Growth Inhibition
How it was run: as §1

[46] = test system: A549/ATCC; conditions: Homo sapiens, single dose 10 µM, '-' = no inhibition, read-out: % Growth Inhibition
How it was run: as §1

[47] = test system: OVCAR-3; conditions: Homo sapiens, single dose 10 µM, '-' = no inhibition, read-out: % Growth Inhibition
How it was run: as §1

[48] = test system: RPMI-8226; conditions: Homo sapiens, single dose 10 µM, '-' = no inhibition, read-out: % Growth Inhibition
How it was run: as §1

## COc1ccc(-c2cc(-c3ccc(Cl)cc3)nc(SCc3ccccc3)n2)cc1OC [Compound 28, 2-(Benzylthio)-4-(4-chlorophenyl)-6-(3,4-dimethoxyphenyl)pyrimidine]
[1]
  inhibition at 10 µM: 23.2%
[2]
  inhibition at 10 µM: < 0%
[3]
  inhibition at 10 µM: 12%
[4]
  inhibition at 10 µM: 14.3%
[5]
  inhibition at 10 µM: 7.96%
[6]
  inhibition at 10 µM: < 0%
[7]
  inhibition at 10 µM: 23.1%
[8]
  inhibition at 10 µM: 18.2%
[9]
  inhibition at 10 µM: 24.8%
[10]
  inhibition at 10 µM: < 0%
[11]
  inhibition at 10 µM: 17.4%
[12]
  inhibition at 10 µM: 4.01%
[13]
  inhibition at 10 µM: 22.2%
[14]
  inhibition at 10 µM: 25.7%
[15]
  inhibition at 10 µM: 31.8%
[16]
  inhibition at 10 µM: 7.84%
[17]
  inhibition at 10 µM: 27.6%
[18]
  inhibition at 10 µM: < 0%
[19]
  inhibition at 10 µM: 6.33%
[20]
  inhibition at 10 µM: 25.9%
[21]
  inhibition at 10 µM: 33%
[22]
  inhibition at 10 µM: 15.3%
[23]
  inhibition at 10 µM: < 0%
[24]
  inhibition at 10 µM: 2.79%
[25]
  inhibition at 10 µM: < 0%
[26]
  inhibition at 10 µM: 12.9%
[27]
  inhibition at 10 µM: 0.63%
[28]
  inhibition at 10 µM: 2.92%
[29]
  inhibition at 10 µM: 14.8%
[30]
  inhibition at 10 µM: 0.85%
[31]
  inhibition at 10 µM: < 0%
[32]
  inhibition at 10 µM: < 0%
[33]
  inhibition at 10 µM: 4.06%
[34]
  inhibition at 10 µM: 17.8%
[35]
  inhibition at 10 µM: 3.64%
[36]
  inhibition at 10 µM: 15.2%
[37]
  inhibition at 10 µM: 0.81%
[38]
  inhibition at 10 µM: 19%
[39]
  inhibition at 10 µM: 32.8%
[40]
  inhibition at 10 µM: 6.53%
[41]
  inhibition at 10 µM: 30.1%
[42]
  inhibition at 10 µM: 18.7%
[43]
  inhibition at 10 µM: 13.1%
[44]
  inhibition at 10 µM: 10.8%
[45]
  inhibition at 10 µM: 13.1%
[46]
  inhibition at 10 µM: 18.9%
[47]
  inhibition at 10 µM: < 0%
[48]
  inhibition at 10 µM: 24.3%
